# Results: ChEMBL document CHEMBL1152536, “Molecular modeling of human acidic mammalian chitinase in complex with the natural-product cyclopentapeptide chitinase inhibitor argifin” (Bioorg Med Chem, 2009)
# Molecular target: Acidic mammalian chitinase (Homo sapiens, UniProt Q9BZP6)
# Assay: Inhibition of human acidic mammalian chitinase
# Sequence of Acidic mammalian chitinase (Q9BZP6 whole entry): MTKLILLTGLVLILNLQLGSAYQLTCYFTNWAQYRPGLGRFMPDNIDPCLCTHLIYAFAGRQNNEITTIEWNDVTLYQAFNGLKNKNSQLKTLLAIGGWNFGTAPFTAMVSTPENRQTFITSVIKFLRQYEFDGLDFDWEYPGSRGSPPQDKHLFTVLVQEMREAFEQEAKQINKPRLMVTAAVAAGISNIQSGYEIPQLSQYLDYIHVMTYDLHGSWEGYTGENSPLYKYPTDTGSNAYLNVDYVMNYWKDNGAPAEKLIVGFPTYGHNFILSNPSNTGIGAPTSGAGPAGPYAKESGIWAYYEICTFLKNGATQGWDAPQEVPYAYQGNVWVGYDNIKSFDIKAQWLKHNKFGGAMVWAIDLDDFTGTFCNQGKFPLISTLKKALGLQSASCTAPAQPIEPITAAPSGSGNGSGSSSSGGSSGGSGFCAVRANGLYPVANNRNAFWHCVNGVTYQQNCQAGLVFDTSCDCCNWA
structure (smiles),measurement,value
CNC(=O)NC(=N)NCCC[C@@H]1NC(=O)[C@@H](C)NC(=O)C[C@@H](C(=O)O)NC(=O)C[C@@H](C(=O)O)NC(=O)[C@H](Cc2ccccc2)N(C)C1=O [ARGIFIN],IC50,4.5 µM
